According to PubChem BioAssay AID1259411 (Chemical Carcinogenesis Research Information System (CCRIS), 2018):
Calls of active or inactive are those of the source. How the calls were made is not given here.

Test system: rodent carcinogenicity bioassays, tumor incidence
Assay: CCRIS carcinogenicity studies
Method in brief: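 Archive of carcinogenicity, mutagenicity, tumor promotion and tumor inhibition results drawn from journals, NCI reports and other sources, expert-reviewed; covers 1985-2011 and is no longer updated.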

CCOc1ccc(N(O)C(C)=O)cc1
carcinogen call (Species: RAT, Strain/Sex: ALBINO/MALE, Route: ORAL, Dose: 0.05, 0.1, 0.5% IN DIET, Dose: 0.05, 0.1, 0.5% IN DIET, Tumor Site: Type of Lesion: LIVER: HEPATOCELLULAR CARCINOMA): active; positive

CC(C)(C)NC(=O)[C@H]1CC[C@H]2[C@@H]3CC[C@H]4NC(=O)C=C[C@]4(C)[C@H]3CC[C@]12C
carcinogen call (Species: MOUSE, Strain/Sex: CD-1/MALE, Route: GAVAGE, Dose: 0, 2.5, 25, 250 MG/KG/D FOR 83 WK (STUDY DURATION: 83 WK), Dose: 0, 2.5, 25, 250 MG/KG/D FOR 83 WK (STUDY DURATION: 83 WK), Tumor Site: Type of Lesion: TESTES: LEYDIG CELL ADENOMA): active; positive

CCOP(=O)(SC(C)CC)N1CCSC1=O (centres undefined)
carcinogen call (Species: Mouse, Strain/Sex: CD-1/Female (60/Group), Route: Oral, Dose: 0, 1.11, 3.20, 10.4, 39.2 mg/kg/day of 93.3% fosthiazate in diet for 104 wk, study duration 102 wk, Dose: 0, 1.11, 3.20, 10.4, 39.2 mg/kg/day of 93.3% fosthiazate in diet for 104 wk, study duration 102 wk): inactive; negative | carcinogen call (Species: Mouse, Strain/Sex: CD-1/Male (60/Group), Route: Oral, Dose: 0, 1.02, 3.10, 10.3, 30.5 mg/kg/day of 93.3% fosthiazate in diet for 104 wk, study duration 102 wk, Dose: 0, 1.02, 3.10, 10.3, 30.5 mg/kg/day of 93.3% fosthiazate in diet for 104 wk, study duration 102 wk): inactive; negative | carcinogen call (Species: Rat, Strain/Sex: CD/Female (50/Group), Route: Oral, Dose: 0, 0.051, 0.50, 2.45, 11.69 mg/kg/day of 93.3% fosthiazate in diet for 104 wk, study duration 104 wk, Dose: 0, 0.051, 0.50, 2.45, 11.69 mg/kg/day of 93.3% fosthiazate in diet for 104 wk, study duration 104 wk): inactive; negative | carcinogen call (Species: Rat, Strain/Sex: CD/Male (50/Group), Route: Oral, Dose: 0, 0.039, 0.38, 1.94, 8.34 mg/kg/day of 93.3% fosthiazate in diet for 104 wk, study duration 104 wk, Dose: 0, 0.039, 0.38, 1.94, 8.34 mg/kg/day of 93.3% fosthiazate in diet for 104 wk, study duration 104 wk): inactive; negative

CNC(=O)Oc1ccccc1OC(C)C
carcinogen call (Species: MOUSE, Strain/Sex: SWISS/FEMALE, Route: DERMAL, Dose: 0, 100 MG/KG BW IN 100 µL ACETONE 3/WK FOR 52 WK (STUDY DURATION: 52 WK)): inactive; negative | carcinogen call (Species: MOUSE, Strain/Sex: SWISS/MALE, Route: DERMAL, Dose: 0, 100 MG/KG BW IN 100 µL ACETONE 3/WK FOR 52 WK (STUDY DURATION: 52 WK)): inactive; negative

ClC(Cl)=C(c1ccc(Cl)cc1)c1ccc(Cl)cc1
carcinogen call (Species: MOUSE, Strain/Sex: B6C3F1/FEMALE, Route: ORAL, Dose: 0, 148, 261 PPM IN DIET, TWA, Dose: 0, 148, 261 PPM IN DIET, TWA, Tumor Site: Type of Lesion: LIVER: HEPATOCELLULAR CARCINOMA): active; positive | carcinogen call (Species: MOUSE, Strain/Sex: B6C3F1/MALE, Route: ORAL, Dose: 0, 148, 261 PPM IN DIET, TWA, Dose: 0, 148, 261 PPM IN DIET, TWA, Tumor Site: Type of Lesion: LIVER: HEPATOCELLULAR CARCINOMA): active; positive | carcinogen call (Species: MOUSE, Strain/Sex: CF-1/MALE,FEMALE, Route: ORAL, Dose: 250 PPM IN DIET, Tumor Site: Type of Lesion: LIVER: HEPATOMA): active; positive | carcinogen call (Species: RAT, Strain/Sex: OSBORNE-MENDEL/FEMALE, Route: ORAL, Dose: 0, 242, 462 PPM IN DIET, TWA, Dose: 0, 242, 462 PPM IN DIET, TWA): inactive; negative | carcinogen call (Species: RAT, Strain/Sex: OSBORNE-MENDEL/MALE, Route: ORAL, Dose: 0, 437, 839 PPM IN DIET, TWA, Dose: 0, 437, 839 PPM IN DIET, TWA): inactive; negative

CCCC[C@@H](C)[C@@H](OC(=O)C[C@@H](CC(=O)O)C(=O)O)[C@H](C[C@@H](C)C[C@H](O)CCCC[C@@H](O)C[C@H](O)[C@H](C)N)OC(=O)C[C@@H](CC(=O)O)C(=O)O
carcinogen call (Species: FISH, Strain/Sex: SHASTA RAINBOW TROUT/MALE,FEMALE, Route: ORAL, Dose: 0, 3.2, 23, 104 PPM IN DIET FOR 4 WK, RESUMED AFTER 2 WK FOR 30 WK (STUDY DURATION: 60 WK), Dose: 0, 3.2, 23, 104 PPM IN DIET FOR 4 WK, RESUMED AFTER 2 WK FOR 30 WK (STUDY DURATION: 60 WK)): inactive; negative | carcinogen call (Species: MOUSE, Strain/Sex: B6C3F1/FEMALE, Route: ORAL, Dose: 0, 5, 15, 50, 80 PPM IN DIET FOR 104 WK (STUDY DURATION: 104 WK), Dose: 0, 5, 15, 50, 80 PPM IN DIET FOR 104 WK (STUDY DURATION: 104 WK), Tumor Site: Type of Lesion: LIVER: HEPATOCELLULAR ADENOMA, HEPATOCELLULAR CARCINOMA): active; positive | carcinogen call (Species: MOUSE, Strain/Sex: B6C3F1/MALE, Route: ORAL, Dose: 0, 5, 15, 80, 150 PPM IN DIET FOR 104 WK (STUDY DURATION: 104 WK), Dose: 0, 5, 15, 80, 150 PPM IN DIET FOR 104 WK (STUDY DURATION: 104 WK)): inactive; negative | carcinogen call (Species: RAT, Strain/Sex: BDIX/MALE,FEMALE, Route: ORAL, Dose: 0, 1, 10, 25 MG/KG DIET FOR 2 YR (STUDY DURATION: 2 YR), Dose: 0, 1, 10, 25 MG/KG DIET FOR 2 YR (STUDY DURATION: 2 YR)): inactive; negative | carcinogen call (Species: RAT, Strain/Sex: BDIX/MALE, Route: ORAL, Dose: 0, 50 MG/KG DIET FOR 26 MO (STUDY DURATION: 26 MO), Tumor Site: Type of Lesion: LIVER: HEPATOCELLULAR CARCINOMA): active; positive | carcinogen call (Species: RAT, Strain/Sex: F344/FEMALE, Route: ORAL, Dose: 0, 5, 15, 50, 100 PPM IN DIET FOR 104 WK (STUDY DURATION: 104 WK), Dose: 0, 5, 15, 50, 100 PPM IN DIET FOR 104 WK (STUDY DURATION: 104 WK)): inactive; negative | carcinogen call (Species: RAT, Strain/Sex: F344/MALE, Route: ORAL, Dose: 0, 5, 15, 50, 150 PPM IN DIET FOR 104 WK (STUDY DURATION: 104 WK), Dose: 0, 5, 15, 50, 150 PPM IN DIET FOR 104 WK (STUDY DURATION: 104 WK), Tumor Site: Type of Lesion: KIDNEY: RENAL TUBULE ADENOMA, RENAL TUBULE CARCINOMA): active; positive

C=C(Cl)CSC(=S)N(CC)CC
carcinogen call (Species: MOUSE, Strain/Sex: B6C3F1/FEMALE, Route: ORAL, Dose: 0, 908, 1815 PPM TWA, IN DIET FOR 74 WK (STUDY DURATION: 90-91 WK), Dose: 0, 908, 1815 PPM TWA, IN DIET FOR 74 WK (STUDY DURATION: 90-91 WK), Tumor Site: Type of Lesion: MAMMARY GLAND: ADENOCARCINOMA OR SQUAMOUS METAPLASIA): active; positive | carcinogen call (Species: MOUSE, Strain/Sex: B6C3F1/MALE, Route: ORAL, Dose: 0, 949, 1897 PPM TWA, IN DIET FOR 74 WK (STUDY DURATION: 91 WK), Dose: 0, 949, 1897 PPM TWA, IN DIET FOR 74 WK (STUDY DURATION: 91 WK), Tumor Site: Type of Lesion: LUNG: ALVEOLAR/BRONCHIOLAR ADENOMA OR ALVEOLAR/BRONCHIOLAR CARCINOMA): active; positive | carcinogen call (Species: RAT, Strain/Sex: OSBORNE-MENDEL/FEMALE, Route: ORAL, Dose: 0, 250, 404 PPM TWA, IN DIET FOR 63-78 WK (STUDY DURATION: 104-111 WK), Dose: 0, 250, 404 PPM TWA, IN DIET FOR 63-78 WK (STUDY DURATION: 104-111 WK), Tumor Site: Type of Lesion: MAMMARY GLAND: ADENOCARCINOMA): active; positive | carcinogen call (Species: RAT, Strain/Sex: OSBORNE-MENDEL/MALE, Route: ORAL, Dose: 0, 250, 410 PPM TWA, IN DIET FOR 64-78 WK (STUDY DURATION: 103-111 WK), Dose: 0, 250, 410 PPM TWA, IN DIET FOR 64-78 WK (STUDY DURATION: 103-111 WK), Tumor Site: Type of Lesion: STOMACH: PAPILLOMA, SQUAMOUS CELL PAPILLOMA OR SQUAMOUS CELL CARCINOMA): active; positive

COc1c2occc2cc2ccc(=O)oc12
carcinogen call (Species: RAT, Strain/Sex: F344/F, Route: GAVAGE, Dose: 0, 37.5, 75 MG/KG IN CORN OIL 5D/WK FOR 103 WK (STUDY DURATION: 106 WK), Dose: 0, 37.5, 75 MG/KG IN CORN OIL 5D/WK FOR 103 WK (STUDY DURATION: 106 WK)): inactive; negative | carcinogen call (Species: RAT, Strain/Sex: F344/M, Route: GAVAGE, Dose: 0, 37.5, 75 MG/KG IN CORN OIL 5D/WK FOR 103 WK (STUDY DURATION: 106 WK), Dose: 0, 37.5, 75 MG/KG IN CORN OIL 5D/WK FOR 103 WK (STUDY DURATION: 106 WK), Tumor Site: Type of Lesion: SUBCUTANEOUS TISSUE: FIBROMA, SUBCUTANEOUS TISSUE: FIBROMA OR SARCOMA, LUNG: ALVEOLAR/BRONCHIOLAR ADENOMA, KIDNEY: TUBUL, Tumor Site: Type of Lesion: SUBCUTANEOUS TISSUE: FIBROMA, SUBCUTANEOUS TISSUE: FIBROMA OR SARCOMA, LUNG: ALVEOLAR/BRONCHIOLAR ADENOMA, KIDNEY: TUBUL): active; positive

CCC(=O)N(O)c1ccc(-c2ccccc2)cc1
carcinogen call (Species: RAT, Strain/Sex: STRAIN-CD/FEMALE, Route: INTRAPERITONEAL, Dose: 0, 100 UMOL/KG BW 2/WK FOR 6 WK (STUDY DURATION: 62 WK)): inactive; negative

CCn1c2ccccc2c2ccccc21
carcinogen call (Species: MOUSE, Strain/Sex: CD-1/FEMALE, Route: INTRAPERITONEAL, Dose: 0, 1.75 UMOL/MOUSE (TOTAL DOSE) ADMINISTERED DURING DAYS 1, 8, AND 15 OF LIFE (STUDY DURATION: 52 WK)): inactive; negative | carcinogen call (Species: MOUSE, Strain/Sex: CD-1/MALE, Route: INTRAPERITONEAL, Dose: 0, 1.75 UMOL/MOUSE (TOTAL DOSE) ADMINISTERED DURING DAYS 1, 8, AND 15 OF LIFE (STUDY DURATION: 52 WK)): inactive; negative
